How the values were obtained:
Assay type in all cases: in vivo
Details in all cases: 50 ppm, 100 = 100% disease control, 0 = no control
[1] = system: Septoria tritici; experiment: Test A: wheat leaf blotch, preventive spray on wheat seedlings
Summary of the method: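 Preventive test: one day after spraying seedlings to run-off (concentrations in ppm; acetone/water, 250 ppm PEG400), Septoria tritici spores applied. Scored after 48 h humid incubation at 24 °C plus 17 days at 20 °C, as percent disease control versus untreated controls (100 = full control).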

[2] = system: Puccinia recondita f. sp. tritici; experiment: Test B: wheat leaf rust, preventive spray on wheat seedlings
Summary of the method: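 Preventive test: compound in acetone/water 50/50 with 250 ppm PEG400 was sprayed onto wheat seedlings one day before inoculation with leaf rust spores. After 24 h in saturated air and 7 days in a growth chamber, both at 20 °C, disease control was scored from 0 to 100 against controls.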

[3] = system: Blumeria graminis f. sp. tritici; experiment: Test C: wheat powdery mildew, preventive spray on wheat seedlings
Summary of the method: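 Preventive test: inoculation with spore dust came one day after spraying seedlings to run-off with ppm suspensions in acetone/water (50/50) plus 250 ppm PEG400 surfactant. Visual ratings after 8 days' incubation at 20° C give percent disease control relative to controls.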

[4] = system: Phakopsora pachyrhizi; experiment: Test D: Asian soybean rust, preventive spray on soybean seedlings
Summary of the method: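 Compounds in acetone/water (50/50) with 250 ppm PEG400, dosed in ppm, sprayed to run-off on soybean seedlings; inoculated with P. pachyrhizi spores next day. Held 24 h at 22 °C in saturated air, then 8 days at 22 °C; visual rating of disease control, 0–100, relative to untreated controls.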

[5] = system: Botrytis cinerea; experiment: Test E: tomato Botrytis, preventive spray on tomato seedlings
Summary of the method: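 Preventive test: seedlings sprayed to run-off with compound in acetone/water (50/50) plus 250 ppm PEG400, inoculated one day later with B. cinerea spores. Held 48 h saturated at 20° C, then 3 days at 24° C; disease control scored visually from 0 to 100 versus controls.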

[6] = system: Alternaria solani; experiment: Test F: tomato early blight, preventive spray on tomato seedlings
Summary of the method: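 Preventive test: one day after the compound spray, seedlings were inoculated with A. solani, incubated saturated at 27 °C for 48 h, then kept at 20 °C for 3 days. Test suspensions contained acetone/water 50/50 with 250 ppm PEG400 surfactant. Visual ratings run from 0 (no control) to 100 (full control).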

| Compound | Test A disease control rating [1] [%] | Test B disease control rating [2] [%] | Test C disease control rating [3] [%] | Test D disease control rating [4] [%] | Test E disease control rating [5] [%] | Test F disease control rating [6] [%] |
| --- | --- | --- | --- | --- | --- | --- |
| Cc1cc(F)c(Nc2c(-c3ccc(F)cc3F)c(C)nn2C)c([N+](=O)[O-])c1 [compound 178] | 100 | 100 | 99 | 97 | 100 | 100 |
| Cc1nn(C)c(Nc2c(F)cccc2[N+](=O)[O-])c1-c1c(F)cc(C#N)cc1F [compound 114] | 100 | 98 | 99 | 73 | 100 | 99 |
| Cc1nn(C)c(Nc2c(F)cc(F)cc2[N+](=O)[O-])c1-c1ccc(C#N)cc1Cl [compound 120] | 100 | 100 | 89 | 44 | 100 | 99 |
| Cc1cc(Cl)c(Nc2c(-c3ccc(Cl)cc3Cl)c(C)nn2C)c([N+](=O)[O-])c1 [compound 145] | 98 | 92 | 52 | 0 | 85 | 24 |
| Cc1nn(C)c(Nc2c(F)cc(Cl)cc2[N+](=O)[O-])c1-c1ccc(C#N)cc1Cl [compound 115] | 100 | 100 | 94 | 77 | 99 | 99 |
| COc1ccc(-c2c(C)nn(C)c2Nc2c(F)cc(Cl)cc2[N+](=O)[O-])c(Cl)c1 [compound 81] | 100 | 99 | 89 | 0 | 95 | 99 |
| Cc1cccc([N+](=O)[O-])c1Nc1c(-c2c(F)cc(F)cc2F)c(C)nn1C [compound 167] | 100 | 100 | 98 | 65 | 95 | 98 |
| Cc1nn(C)c(Nc2ccccc2[N+](=O)[O-])c1-c1c(F)cc(F)cc1F [compound 149] | 100 | 80 | 97 | 0 | 99 | 96 |
| Cc1cc(Cl)c(Nc2c(-c3c(F)cccc3F)c(C)nn2C)c([N+](=O)[O-])c1 [compound 100] | 100 | 89 | 21 | 0 | 26 | 0 |
| COc1ccc(-c2c(C)nn(C)c2Nc2c(Cl)cccc2[N+](=O)[O-])c(C)c1 [compound 35] | 99 | 85 | 0 | 0 | 0 | 0 |
| Cc1nn(C)c(Nc2c(F)cc(F)cc2[N+](=O)[O-])c1-c1c(F)cccc1Cl [compound 39] | 100 | 100 | 99 | 73 | 88 | 99 |
| Cc1nn(C)c(Nc2ccccc2[N+](=O)[O-])c1-c1ccc(F)cc1Cl [compound 126] | 98 | 85 | 96 | 0 | 100 | 68 |
| COc1cc(F)c(-c2c(C)nn(C)c2Nc2c(F)cc(F)cc2[N+](=O)[O-])c(F)c1 [compound 84] | 100 | 100 | 99 | 48 | 90 | 99 |
| Cc1nn(C)c(Nc2c(Cl)cccc2[N+](=O)[O-])c1-c1c(F)cc(F)cc1Cl [compound 152] | 99 | 100 | 98 | 91 | 99 | 92 |
| Cc1nn(C)c(Nc2cc(F)ccc2[N+](=O)[O-])c1-c1ccc(F)cc1Cl [compound 30] | 100 | 86 | 91 | 0 | 67 | 0 |
| COc1ccc(-c2c(C)nn(C)c2Nc2ccc(Cl)cc2[N+](=O)[O-])c(Cl)c1 [compound 74] | 99 | 86 | 81 | 74 | 99 | 85 |
| CCc1nn(C)c(Nc2c(F)cc(F)cc2[N+](=O)[O-])c1-c1ccc(F)cc1F [compound 50] | 100 | 98 | 100 | 0 | 92 | 98 |
| Cc1nn(C)c(Nc2c(Cl)cccc2[N+](=O)[O-])c1-c1c(F)cc(F)cc1F [compound 158] | 99 | 100 | 99 | 87 | 99 | 83 |
| Cc1nn(C)c(Nc2c(Br)cccc2[N+](=O)[O-])c1-c1ccc(C#N)cc1Cl [compound 125] | 100 | 96 | 0 | 0 | 99 | 9 |
| Cc1nn(C)c(Nc2c(Cl)cccc2[N+](=O)[O-])c1-c1ccc(F)cc1Br [compound 41] | 100 | 100 | 94 | 77 | 77 | 0 |
| CCc1nn(C)c(Nc2c(F)cccc2[N+](=O)[O-])c1-c1c(F)cc(Cl)cc1F [compound 170] | 100 | 99 | 99 | 0 | 100 | 99 |
| Cc1nn(C)c(Nc2c(Cl)cc(Cl)cc2[N+](=O)[O-])c1-c1c(F)cccc1F [compound 96] | 100 | 95 | 0 | 0 | 80 | 0 |
| Cc1nn(C)c(Nc2ccccc2[N+](=O)[O-])c1-c1ccc(F)cc1Br [compound 139] | 98 | 86 | 76 | 0 | 100 | 33 |
| Cc1cc(F)c(Nc2c(-c3ccc(Cl)cc3Cl)c(C)nn2C)c([N+](=O)[O-])c1 [compound 143] | 99 | 100 | 96 | 87 | 99 | 100 |
| Cc1nn(C)c(Nc2c(Cl)cccc2[N+](=O)[O-])c1-c1ccc(F)cc1Cl [compound 108] | 100 | 100 | 97 | 86 | 100 | 77 |
| Cc1cccc([N+](=O)[O-])c1Nc1c(-c2c(F)cc(F)cc2Br)c(C)nn1C [compound 169] | 100 | 100 | 100 | 0 | 98 | 0 |

Source: patent US20230148599A1, “FUNGICIDAL MIXTURES CONTAINING PYRAZOLE DERIVATIVES” (FMC Corporation, priority 2020, published 2023)
